The text below walks through data of patent US5696151A, “Compounds useful for the inhibition of the replication of HIV-1 and HIV-1 mutants” (priority 1995, dated 1997).

The subject of data set [1] is HIV-1 strains containing the 100 Leu →Ile mutation in their RT. The conditions noted are these: background, Balzarini I and II; cited from earlier work.
The next data set deals with HIV-1/181-Cys. Kind of data set: Inhibition of HIV-1 induced syncytium formation in CEM cells, RT mutant 181-Cys. Type of data set: cell-based. The following applies: Human immunodeficiency virus 1, CCRF-CEM, 96 h, Table 2A, day 4, averages of 2 to 3 independent experiments, read-out: Antiviral Activity EC50, 181-Cys. The procedure, abridged:
(§1)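 Read-out: microscopic scoring of syncytium formation on day 4 post infection. CEM cells at ≈300,000/ml, infected with ~100 CCID50 of HIV-1(IIIB) or RT mutant virus, were cultured with 5-fold serial compound dilutions.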

The next data set relates to HIV-1 RT mutant strains. Kind of data set: Antiviral activity in CEM cells against the HIV-1 RT mutant strains. Type of data set: cell-based. The following applies: Human immunodeficiency virus 1, CCRF-CEM, read-out: EC50 values against the HIV-1 RT mutant strains. An excerpt:
(§2) CEM cells were obtained from the American Tissue Cell Culture Collection (Rockville, Md.). HIV-1(IIIB) was originally obtained from the culture supernatant of persistently HIV-1-infected H9 cells and was provided by R. C. Gallo and M. Popovic (National Cancer Institute, National Institutes of Health, Bethesda, Md.). […] 67: 5353-5359 (1993); HIV-1/Lys-138 ("Lys-138") was selected for resistance against TSAO-m^3T as described in Balzarini et al, Virology 192: 246-253 (1993) and Balzarini et al, Proc. Nat. Acad. Sci. USA 90: 6952-6956 (1993); HIV-1/181-Cys ("181-Cys") was selected for resistance against pyridinone L-697,661 as described in Balzarini et al, Virology 192: 246-253 (1993); and HIV-1/188-His ("188-His") was selected for resistance against HEPT as described in Balzarini et al, Mol. Pharmocol. 44: 694-701 (1993). 188-His was then further converted to HIV-1/188-Leu "188-Leu") upon further passage in cell culture in the absence of the HEPT.
(§3) CEM cells were suspended at ≈300,000 cells per ml of culture medium and infected with approximately 100 CCID50 (CCID50 being the 50% cell culture infective dose) of HIV-1(IIIB) or one of the HIV-1 RT mutant strains described above. Then 100 μl of the infected cell suspensions was added to 200 μl microtiter plate wells containing 100 μl of appropriate serial (5-fold) dilutions of the test compounds. […]

A short description of another data set: in vitro. It counts as cell-based. The conditions noted are these: human, cem cells, CC50 (50% cytostatic concentration), Table 2A; CEM cell proliferation; averages of 2 to 3 independent experiments. The procedure, abridged: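 Value is the 50% cytostatic concentration, the compound concentration that inhibits CEM cell proliferation by 50%. HIV-1(IIIB) and NNRTI-resistant variants selected in culture (Lys-138, 181-Cys, 188-His, 188-Leu) were used alongside.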

The subject of data set [2] is HIV-1(IIIB) and the HIV-1 RT mutants. Kind of data set: Antiviral activity in CEM cells against wild type and RT mutants. It counts as cell-based.
Text: as §2, §3

A further data set has as its system HIV-1/100-Ile. Kind of data set: Inhibition of HIV-1 induced syncytium formation in CEM cells, RT mutant 100-Ile. It counts as cell-based. The following applies: Human immunodeficiency virus 1, CCRF-CEM, 96 h, Table 2A, day 4, averages of 2 to 3 independent experiments, read-out: Antiviral Activity EC50, 100-Ile. The procedure, abridged: as §1
The subject of the next data set is HIV-1(IIIB). Kind of data set: Inhibition of HIV-1 induced syncytium formation in CEM cells, wild type. Type of data set: cell-based. The conditions noted are these: Human immunodeficiency virus 1, IIIB, CCRF-CEM, 96 h, Table 2A, WT = HIV-1(IIIB), day 4, averages of 2 to 3 independent experiments, read-out: Antiviral Activity EC50, WT. An outline of the steps: as §1

The next data set deals with HIV-1/106-Ala. Kind of data set: Inhibition of HIV-1 induced syncytium formation in CEM cells, RT mutant 106-Ala. It counts as cell-based. The following applies: Human immunodeficiency virus 1, CCRF-CEM, 96 h, Table 2A, day 4, averages of 2 to 3 independent experiments, read-out: Antiviral Activity EC50, 106-Ala. An outline of the steps:
as §1

The subject of a further data set is HIV-1/103-Asn. Kind of data set: Inhibition of HIV-1 induced syncytium formation in CEM cells, RT mutant 103-Asn. It counts as cell-based. The conditions noted are these: Human immunodeficiency virus 1, CCRF-CEM, 96 h, Table 2A, day 4, averages of 2 to 3 independent experiments, read-out: Antiviral Activity EC50, 103-Asn. An outline of the steps: as §1
Another data set relates to HIV-1/Lys-138. Kind of data set: Inhibition of HIV-1 induced syncytium formation in CEM cells, RT mutant 138-Lys. It counts as cell-based. The following applies: Human immunodeficiency virus 1, CCRF-CEM, 96 h, Table 2A, day 4, averages of 2 to 3 independent experiments, read-out: Antiviral Activity EC50, 138-Lys. An outline of the steps:
as §1

The next data set deals with HIV-1/188-Leu. Kind of data set: Inhibition of HIV-1 induced syncytium formation in CEM cells, RT mutant 188-Leu. It counts as cell-based. The following applies: Human immunodeficiency virus 1, CCRF-CEM, 96 h, Table 2A, day 4, averages of 2 to 3 independent experiments, read-out: Antiviral Activity EC50, 188-Leu. The procedure, abridged:
as §1

For data set [3], the system named is 181 Tyr →Cys mutation in the RT of HIV-1 strains. The following applies: background, Balzarini I and II; cited from earlier work.

In brackets after ≈: the same amount, converted by molar mass.

In the case of `CC(C)=CCN1Cc2cc(Cl)cc3[nH]c(=S)n(c23)C[C@@H]1C` [TIBO R82913], the “resistance of 100 Leu →Ile RT mutant strains” value in data set [1] is on record as “resistant”.
A word on the EC50: it is the midpoint of the concentration-response curve. As usually defined, the CC50 is the concentration at which the toxic effect on the cells reaches its halfway point. A high value points to lower toxicity to the cells. As to `CC(C)=CCOc1cc(NC(=S)c2ccoc2C)ccc1Cl` [Compound IA, N-[4-chloro-3-(3-methyl-2-butenyloxy)phenyl]-2-methyl-3-furancarbothioamide], the EC50 in the data set on HIV-1/181-Cys was 11 ng/mL (≈ 0.0328 µM); with HIV-1 RT mutant strains it was 3 to 11 ng/mL (≈ 0.00893 to 0.0328 µM); with HIV-1/100-Ile, 3 ng/mL (≈ 0.00893 µM); in the data set on HIV-1(IIIB), 3 ng/mL (≈ 0.00893 µM); in the data set with HIV-1/106-Ala, 5 ng/mL (≈ 0.0149 µM); in the data set on HIV-1/103-Asn it was 6 ng/mL (≈ 0.0179 µM). Besides, the EC50 came out at 5 ng/mL (≈ 0.0149 µM) in the data set on HIV-1/Lys-138 and 500 ng/mL (≈ 1.49 µM) in the data set with HIV-1/188-Leu. In addition, in “in vitro”, the CC50 was more than 100000 ng/mL. In addition, the “EC50 values against HIV-1(IIIB) and the HIV-1 RT mutants (in words)” value in [2] was “extremely low, and virtually similar EC50 values”.
Turning to `Cc1ccnc2c1NC(=O)c1cccnc1N2C1CC1` [nevirapine], the “resistance of 181 Tyr →Cys RT mutant viruses” value in data set [3] is “resistant”.
On to `CC(C)=CCN1Cc2cccc3[nH]c(=S)n(c23)C[C@@H]1C` [Compound R82150], for which the “resistance of 100 Leu →Ile RT mutant strains” value in data set [1] was “resistant”.
For the compound `CC(C)=CCOc1cc(NC(=S)c2ccsc2C)ccc1Cl` [Compound IB, N-[4-chloro-3-(3-methyl-2-butenyloxy)-phenyl]-2-methyl-3thiophenecarbothioamide], the EC50 is 5 ng/mL (≈ 0.0142 µM) in the data set on HIV-1/181-Cys; 3 to 11 ng/mL (≈ 0.00852 to 0.0313 µM) with HIV-1 RT mutant strains; 4 ng/mL (≈ 0.0114 µM) in the data set on HIV-1/100-Ile; 3 ng/mL (≈ 0.00852 µM) with HIV-1(IIIB); 5 ng/mL (≈ 0.0142 µM) in the data set on HIV-1/106-Ala; 4 ng/mL (≈ 0.0114 µM) in the data set with HIV-1/103-Asn. Further, the values for the EC50 in the data set with HIV-1/Lys-138 and with HIV-1/188-Leu were 5 ng/mL (≈ 0.0142 µM) and 600 ng/mL (≈ 1.7 µM), respectively. In “in vitro”, this compound returned a CC50 of 5800 ng/mL (≈ 16.5 µM). Further, the “EC50 values against HIV-1(IIIB) and the HIV-1 RT mutants (in words)” value in data set [2] was “extremely low, and virtually similar EC50 values”.
